Laboratory results: PubChem BioAssay (NCI)
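Exposure lasted 48 hours, with cells grown in 96-well plates and compounds tested at five concentrations. GI50 is the concentration that inhibits growth by half. At the TGI there is no net growth.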

Legend:
Experiment in all cases: NCI anticancer screen, dose series, 48 h
HOP-62 NSCLC = system: HOP-62 NSCLC
SK-MEL-2 melanoma = system: SK-MEL-2 melanoma
A498 renal = system: A498 renal
MOLT-4 leukemia = system: MOLT-4 leukemia
TK-10 renal = system: TK-10 renal
OVCAR-8 ovarian = system: OVCAR-8 ovarian
A549 NSCLC = system: A549 NSCLC
SNB-75 CNS = system: SNB-75 CNS
PC-3 prostate = system: PC-3 prostate
OVCAR-4 ovarian = system: OVCAR-4 ovarian

SMILES	TGI (HOP-62 NSCLC)	TGI (SK-MEL-2 melanoma)	TGI (A498 renal)	TGI (MOLT-4 leukemia)	TGI (TK-10 renal)	TGI (OVCAR-8 ovarian)	TGI (A549 NSCLC)	TGI (SNB-75 CNS)	TGI (PC-3 prostate)	GI50 (HOP-62 NSCLC)	GI50 (A498 renal)	GI50 (MOLT-4 leukemia)	GI50 (TK-10 renal)	GI50 (OVCAR-8 ovarian)	GI50 (A549 NSCLC)	GI50 (SNB-75 CNS)	GI50 (OVCAR-4 ovarian)	TGI (OVCAR-4 ovarian)	GI50 (PC-3 prostate)
CC(=O)Nc1ncc(Sc2ccccc2C(=O)O)s1	> 100 µM	> 100 µM	> 100 µM	> 100 µM	> 100 µM	> 100 µM	> 100 µM	> 100 µM	> 100 µM	–	–	–	–	–	–	–	–	–	–
CC(=O)O[C@H]1CC[C@]2(C)[C@H]3CC[C@@H]4[C@H]5[C@H](C(C)C)CC[C@]5(C(=O)OCC(CO)(CO)N=C(N)N)CC[C@@]4(C)[C@]3(C)CC[C@H]2C1(C)C	3.56 µM	–	3.67 µM	4.83 µM	3.12 µM	5.45 µM	3.28 µM	3.23 µM	3.09 µM	1.82 µM	1.86 µM	2.1 µM	1.67 µM	2.32 µM	1.71 µM	1.57 µM	1.68 µM	3.32 µM	1.59 µM
CC(=O)[O-].CC(=O)[O-].O=C(N/N=C/c1cc(Cl)cc(Cl)c1[OH2+])c1ccncc1.[Co+2]	> 100 µM	–	> 100 µM	> 100 µM	> 100 µM	> 100 µM	> 100 µM	> 100 µM	–	–	–	–	–	–	–	–	–	–	–
CN1C(c2ccccc2)=CC(=O)C(O)=C(c2ccccc2)S1(=O)=O	> 100 µM	> 100 µM	–	> 100 µM	> 100 µM	> 100 µM	> 100 µM	> 100 µM	> 100 µM	–	–	–	–	–	–	–	–	> 100 µM	–
COc1ccc(/C=C2\CSC/C(=C\c3ccc(OC)c(OC)c3OC)C2=O)c(OC)c1OC	> 100 µM	> 100 µM	–	–	> 100 µM	80.8 µM	> 100 µM	–	> 100 µM	–	–	–	–	–	–	–	–	–	–
O=C(O)CSc1cc(-c2ccccc2)nc2ccccc12	> 100 µM	> 100 µM	67 µM	> 100 µM	> 100 µM	> 100 µM	> 100 µM	–	> 100 µM	–	–	–	–	–	–	–	–	> 100 µM	–
COC(=O)C1=Nc2c(C)nn(-c3ccccc3)c2N=C(c2ccc(C)cc2)C1	> 10 µM	–	–	> 10 µM	> 10 µM	> 10 µM	> 10 µM	> 10 µM	> 10 µM	–	–	–	–	–	–	–	–	> 10 µM	–
N#Cc1[nH]c(=O)n(-c2ccc(Cl)cc2)c1N	> 10 µM	> 10 µM	> 10 µM	> 10 µM	> 10 µM	> 10 µM	> 10 µM	–	> 10 µM	–	–	–	–	–	–	–	–	> 10 µM	–
Cc1csc2nc(-c3ccc([N+](=O)[O-])cc3)c(/C=N/N=C(N)N)n12	3.28 µM	2.86 µM	3.46 µM	–	3.9 µM	2.68 µM	3.2 µM	2.97 µM	3.25 µM	–	–	–	–	–	–	–	–	3.04 µM	–
COC(=O)CC1(CNC(=O)OCc2ccccc2)OCCO1	–	> 100 µM	> 100 µM	> 100 µM	> 100 µM	> 100 µM	> 100 µM	> 100 µM	> 100 µM	–	–	–	–	–	–	–	–	> 100 µM	–
CC1CCCC2=C1C(c1ccc(Cl)cc1)n1c(s/c(=C\c3ccc(Cl)cc3)c1=O)=N2 (stereo not drawn)	> 100 µM	> 100 µM	> 100 µM	–	> 100 µM	> 100 µM	> 100 µM	> 100 µM	> 100 µM	–	–	–	–	–	–	–	–	–	–
CCOc1ccc2c(c1)/C(=C(\C(Cl)=C(Cl)Cl)[N+](=O)[O-])N2	> 100 µM	> 100 µM	> 100 µM	> 100 µM	–	> 100 µM	> 100 µM	> 100 µM	> 100 µM	–	–	–	–	–	–	–	–	> 100 µM	–
CCC1CC2CN3CCc4c([nH]c5c(-c6c(OC)ccc7c8c([nH]c67)[C@]6(C(=O)OC)CC7CC(CC)C6N(CC8)C7)c(O)ccc45)[C@](C(=O)OC)(C2)C13 (stereo partly drawn)	28.5 µM	47.2 µM	28.7 µM	16.7 µM	33.4 µM	49.7 µM	36.9 µM	48.8 µM	30.2 µM	–	–	–	–	–	–	–	–	–	–
c1ccc(C2SCC3=Nc4ccccc4CN32)cc1 (stereo not drawn)	> 100 µM	–	> 100 µM	> 100 µM	> 100 µM	57.3 µM	> 100 µM	> 100 µM	> 100 µM	–	–	–	–	–	–	–	–	> 100 µM	–
Cc1cc2[nH]c3c(C#N)c(-c4ccccc4)c(N=Nc4cccc(C(F)(F)F)c4)c(=O)n3c2cc1C	> 100 µM	> 100 µM	> 100 µM	–	> 100 µM	> 100 µM	> 100 µM	> 100 µM	> 100 µM	–	–	–	–	–	–	–	–	> 100 µM	–
O=C(N/N=C1\CCc2ccccc2C1)N/N=C1\CCc2ccccc2C1	> 10 µM	> 10 µM	–	> 10 µM	> 10 µM	> 10 µM	> 10 µM	–	> 10 µM	–	–	–	–	–	–	–	–	> 10 µM	–
CC1C(c2ccc3c(c2)OCO3)c2cc3c(cc2OC1N1CCCC1)OCO3 (stereo not drawn)	> 100 µM	90.4 µM	–	69.9 µM	> 100 µM	> 100 µM	> 100 µM	61.7 µM	> 100 µM	–	–	–	–	–	–	–	–	–	–
O=C1CCCc2c1c1c(n2Cc2ccccc2)-c2ccccc2C1=O	50.2 µM	43 µM	–	–	31.4 µM	34 µM	88.2 µM	> 100 µM	96.6 µM	–	–	–	–	–	–	–	–	36.5 µM	–
CC(=O)c1ccc(Oc2ccc(/C(C)=N\N=C(N)N)cc2)cc1	9.72 µM	6.17 µM	7.53 µM	12.2 µM	12.8 µM	12.7 µM	14.5 µM	5.15 µM	–	–	–	–	–	–	–	–	–	23 µM	–
CC(C)(C)[Si](C)(C)OCCCC#CCO	–	> 100 µM	> 100 µM	> 100 µM	> 100 µM	> 100 µM	> 100 µM	> 100 µM	–	–	–	–	–	–	–	–	–	> 100 µM	–
C/C(=N\Nc1ccc([N+](=O)[O-])cc1[N+](=O)[O-])c1ccc2ccccc2n1	–	> 100 µM	–	> 100 µM	> 100 µM	> 100 µM	> 100 µM	> 100 µM	> 100 µM	–	–	–	–	–	–	–	–	–	–
COc1ccc(C2SCC(=O)N2c2ccc(-c3ccc(-n4c(-c5ccccc5)nc5ccccc5c4=O)cc3)cc2)cc1 (stereo not drawn)	> 100 µM	86.7 µM	> 100 µM	> 100 µM	> 100 µM	> 100 µM	> 100 µM	–	> 100 µM	–	–	–	–	–	–	–	–	> 100 µM	–
CN(C)CCNc1ccc([N+](=O)[O-])c2nc3ccccc3c(N)c12	> 10 µM	3.53 µM	–	4.74 µM	> 10 µM	> 10 µM	4.23 µM	3.96 µM	2.87 µM	–	–	–	–	–	–	–	–	3.58 µM	–
